One assay relates to HCT116 cells. Briefly: Cytotoxicity assay (MTT) on HCT-116 cells co-treated with HGS-ETR1. The class given is cell-based. The note with it: Homo sapiens, co-treated with HGS-ETR1 40 ng/mL, 72 hours. On the procedure: (§1) SKOV3 (ovarian) and HCT-116 (colon) cancer cells were cultured in McCoy's 5A media supplemented with 10% FBS and 100 units/mL of Penicillin and Streptomycin.
(§2) Cytotoxicity assays were performed on various cell lines including SKOV3 and HCT-116 cells. Cells were seeded in 96 well plates at a respective density of 2000 and 5000 cells per well and incubated at 37° C. in presence of 5% CO2 for 24 hours. Selected compounds were diluted into the media at various concentrations ranging from 0.01 nM up to 100 nM. Diluted compounds were added onto the SKOV3 cells. HCT-116 cells were co-treated with Trail receptor monoclonal antibody agonist (HGS-ETR^1, 40 ng/mL). After 72 hours, cellular viability was evaluated by MTT conversion. A solution of 3-(4,5-dimethylthiazol-2-yl)-2,5-diphenyltetrazolium bromide (MTT) was added onto cells for a period of 1 to 4 hours. Media was removed and replaced with isopropanol. Conversion of MTT by viable cells was detected by absorbance at 570 nm. The percentage of viability was expressed in percentage of the signal obtained with non treated cells.

The next assay has as its system SKOV3 cells. Briefly: Cytotoxicity assay (MTT) on SKOV3 cells. It is filed as cell-based. The note with it: Homo sapiens, SK-OV-3, 72 hours, single agent. As for the experimental part:
as §1, §2

Assay [1] addresses T1, XIAP BIR2-BIR3-ring (GST-linker BIR 2 BIR3Ring) (Homo sapiens, UniProt P98170).
T1 construct: made in house; host or cells: Escherichia coli DH5-alpha
Briefly: Fluorescence polarization competition assay, BIR2-BIR3-ring, probe P2. The class given is binding. The note with it: ki derived from IC50, read-out: ki in the BIR2-BIR3-ring FP assay. From the text:
GST-linker BIR 2 BIR3Ring: XIAP coding sequence from amino acids 93-497 cloned into PGex4T1 via BamH1 and XhoI. Amino acids 93-497 were amplified from full length XIAP in pGex4t3, using the primers: […] and GCTGCATGTGTGTCAGAGG, using standard PCR conditions. The PCR fragment was TA cloned into pCR-2.1 (invitrogen). Linker BIR 2 BIR 3Ring was subcloned into pGex4T1 by BamHI/XhoI digestion. The plasmid was transformed into E. coli DH5α for use in protein expression and purification.
For all assays, the fluorescence and fluorescence-polarization was evaluated using a Tecan Polarion instrument with the excitation filter set at 485 nm and the emission filter set at 535 nm. […] Upon establishing these conditions, the compounds potency (IC50) and selectivity, was assessed in the presence of a fix defined-amount of target protein and fluorescent probe and a 10 point serial dilution of the selected compounds. […] Auto-fluorescence for each compound was first assessed by performing a reading of the compound/BSA solution alone. Then 25 uL of the fluorescein probe (P1 or P2) diluted into 50 mM MES containing 0.05 mg/ml BSA were added and a reading to detect quenching of fluorescein signal done. Finally 25 uL/well of the target or control protein (GST-BIRs) diluted at the appropriate concentration in 50 mM MES containing 0.05 mg/ml BSA were added and the fluorescence polarization evaluated. […]
For orientation: Polarisation of emitted light reports the rotation of a fluorescent probe.

pEC50, pKi: −log10 of the molar value.

T1 sequence (P98170 93-497): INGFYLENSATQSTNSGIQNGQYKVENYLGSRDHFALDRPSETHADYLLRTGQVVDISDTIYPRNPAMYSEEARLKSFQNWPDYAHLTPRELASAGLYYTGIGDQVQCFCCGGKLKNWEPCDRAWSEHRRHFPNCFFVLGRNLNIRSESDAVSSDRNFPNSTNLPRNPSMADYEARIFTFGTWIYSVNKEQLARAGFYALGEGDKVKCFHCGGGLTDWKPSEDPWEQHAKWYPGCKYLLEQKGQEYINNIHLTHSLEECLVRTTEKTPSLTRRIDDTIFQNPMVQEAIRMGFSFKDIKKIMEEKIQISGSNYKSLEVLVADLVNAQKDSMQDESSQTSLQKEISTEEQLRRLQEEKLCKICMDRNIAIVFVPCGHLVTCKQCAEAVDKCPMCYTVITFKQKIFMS

In general, pEC50 refers to the EC50 on a negative log10 scale, so that one unit is a factor of ten. Turning to `CN[C@@H](C)C(=O)N[C@H](C(=O)N1CCN(C(=O)c2ccc(C(=O)N3CCN(C(=O)[C@@H](NC(=O)[C@H](C)NC)C(C)(C)C)[C@H](C(=O)N[C@@H]4CCCc5ccccc54)C3)cc2)C[C@H]1C(=O)N[C@@H]1CCCc2ccccc21)C(C)(C)C` [Compound 1], the negative-log EC50 (pEC50) in the assay on HCT116 cells and with SKOV3 cells was more than 7.30 in each case.
Regarding `CN[C@@H](C)C(=O)N[C@H](C(=O)N1CCN(C(=O)CCCCCCCCC(=O)N2CCN(C(=O)[C@@H](NC(=O)[C@H](C)NC)C(C)(C)C)[C@H](C(=O)N[C@@H]3CCCc4ccccc43)C2)C[C@H]1C(=O)N[C@@H]1CCCc2ccccc21)C(C)(C)C` [Compound 2], the pEC50 in the assay with HCT116 cells and with SKOV3 cells was more than 7.30 each time.
A word on the pKi: it is −log10 of the Ki, conventionally taken in molar units. On to `CN[C@@H](C)C(=O)N[C@H](C(=O)N1CCN(C(=O)CNC(=O)c2ccc(-c3ccc(C(=O)NCC(=O)N4CCN(C(=O)[C@@H](NC(=O)[C@H](C)NC)C(C)(C)C)[C@H](C(=O)N[C@@H]5CCCc6ccccc65)C4)cc3)cc2)C[C@H]1C(=O)N[C@@H]1CCCc2ccccc21)C(C)(C)C` [Compound 3], for which the pKi in assay [1] is more than 7.00.

(Values after patent US20100203012A1, “IAP BIR DOMAIN BINDING COMPOUNDS” (Aegera Therapeutics, Inc., priority 2007, published 2010).)
